Data on two molecules can be found in US11413283B2, “Topical formulations for delivery of hedgehog inhibitor compounds and use thereof” (PellePharm, Inc., priority 2015, dated 2022).

Read-outs that look alike come from different tables or passages of the source.

Data set [1] in a line: Saturated solubility of itraconazole in solvents and solvent systems. The data set is classed as physicochemical.
Data set [2] has as its system Hedgehog (Hh) signaling pathway. To be noted: Kim and Beachy, Cancer Cell, 17, 388-399, 2010; read-out: IC50 value for itraconazole (half maximal inhibitory concentration); cited from earlier work.
Data set [3] concerns cellular hedgehog pathway. As to conditions: Tremblay et al., J. Med. Chem. 2009; read-out: half maximal effective concentration for inhibition of cellular hedgehog pathway; cited from earlier work.
Data set [4] is described as follows: Toxicokinetics of patidegib and metabolite IPI-230 in plasma after twice daily dermal application for 13 weeks. Format: in vivo, Gottingen Minipig. To be noted: for Cmax / AUC(0-t) / Tmax: Gottingen, minipig, plasma, topical or ocular; for Cmax / AUC(0-t): Gottingen Minipig plasma; for AUC(0-t): read-out: Mean Patidegib AUC0-24; for Tmax: dermal, minipig plasma, read-out: Individual Tmax. The procedure: A study was conducted to evaluate the toxicokinetics of patidegib when administered twice daily via dermal application for 13 weeks. As described in Example 11, the formulation identified herein as SS14 was prepared, with patidegib concentrations of 2% and 4%. The formulations, along with a placebo, were applied topically to Gottingen Minipigs® twice daily, and blood samples were collected on study days 1, 14 and 90 for analysis of patidegib and its metabolite, IPI-230.
A study was conducted to determine the toxicokinetics of patidegib and its metabolite, IPI-230, when patidegib was administered twice daily (approximately 8 hours apart) to Gottingen Minipigs® via dermal application for 13 weeks.
The formulation identified herein as SS14 was prepared, with 2% patidegib and with 4% patidegib. A placebo formulation was also prepared that was identical in all respects to SS14 except for the absence of the patidegib. The formulation was applied topically to the animals at patidegib dose levels of 0 mg/kg/day (untreated), 0 mg/kg/day (placebo), 40 mg/kg/day, and 80 mg/kg/day to Groups 1, 2, 3, and 4, respectively. Groups 1 and 3 consisted of four animals/sex/group and Groups 2 and 4 consisted of six animals/sex/group. Doses were administered twice daily (approximately 8 hours apart). Blood samples were collected from all animals, survival permitting, on Days 1, 14 (Group 4 only), and 90 predose and at approximately 2, 4, 6, 8 (just prior to the second daily dose), 10, 12, 14, 16, and 24 hours following the first daily dose. Plasma samples were assayed for patidegib and IPI-230. Only the 2-hour samples from the untreated and placebo groups were analyzed.
Noncompartmental analysis was applied to the individual plasma patidegib and IPI-230 concentration data for males and females. The following parameters were estimated: Cmax—Maximum observed concentration; Tmax—Time of maximum observed concentration; AUCTlast—Area under the concentration-time curve from hour 0 to the last measurable concentration, estimated by the linear trapezoidal rule; AUC0-24—Area under the concentration-time curve from hour 0 to hour 24, estimated by the linear trapezoidal rule; DN AUC0-24—Dose normalized AUC0-24, calculated as AUC0-24/dose level; DN Cmax—Dose normalized Cmax, calculated as Cmax/dose level.

Where [5] appears, read: minimum of 24 hours stirring at 25° C.
The mark [6] stands for this setting: both sexes, 40 mg/kg/day, Day 90, Group 3, 40 mg/kg/day dermal twice daily, sexes combined MF.
Setting [7] is: both sexes, 80 mg/kg/day, Day 1, Group 4, 80 mg/kg/day dermal twice daily, sexes combined MF.
The mark [8] stands for this setting: both sexes, 80 mg/kg/day, Day 14, Group 4, 80 mg/kg/day dermal twice daily, sexes combined MF.
[9] abbreviates: both sexes, 80 mg/kg/day, Day 90, Group 4, 80 mg/kg/day dermal twice daily, sexes combined MF.
Setting [10] is: female, 40 mg/kg/day, Day 1, Group 3, 40 mg/kg/day dermal twice daily, sex F.
Setting [11] is: female, 40 mg/kg/day, Day 90, Group 3, 40 mg/kg/day dermal twice daily, sex F.
The mark [12] stands for this setting: female, 80 mg/kg/day, Day 1, Group 4, 80 mg/kg/day dermal twice daily, sex F.
The mark [13] stands for this setting: female, 80 mg/kg/day, Day 14, Group 4, 80 mg/kg/day dermal twice daily, sex F.
[14] abbreviates: female, 80 mg/kg/day, Day 90, Group 4, 80 mg/kg/day dermal twice daily, sex F.
Setting [15] is: male, 40 mg/kg/day, Day 90, Group 3, 40 mg/kg/day dermal twice daily, sex M.
[16] abbreviates: male, 80 mg/kg/day, Day 1, Group 4, 80 mg/kg/day dermal twice daily, sex M.
[17] abbreviates: male, 80 mg/kg/day, Day 14, Group 4, 80 mg/kg/day dermal twice daily, sex M.
Where [18] appears, read: male, 80 mg/kg/day, Day 90, Group 4, 80 mg/kg/day dermal twice daily, sex M.

For `CCC(C)n1ncn(-c2ccc(N3CCN(c4ccc(OCC5COC(Cn6cncn6)(c6ccc(Cl)cc6Cl)O5)cc4)CC3)cc2)c1=O` [itraconazole, (2R,4S)-rel-1-(butan-2-yl)-4-{4-[4-(4-(4-{[(2R,4S)-2-(2,4-dichlorophenyl)-2-(1H-1,2,4-triazol-1-ylmethyl)-1,3-dioxolan-4-yl]methoxy}phenyl)piperazin-1-yl]phenyl}-4,5-dihydro-1H-1,2,4-triazol-5-one], the “solubility of itraconazole in water” value in data set [1] is given as “highly insoluble”. For the same molecule, in data set [1] (setting [5]), the “saturated solubility of itraconazole in N-methyl pyrrolidone” value is given as 7.65 % w/w, the “solubility of itraconazole in benzyl alcohol” value is 14.97 % w/w, the “solubility of itraconazole in castor oil” value was 0.01-0.05 % w/w and the “solubility of itraconazole in diisopropyl adipate” value is listed as 0.01-0.05 % w/w. In data set [1] (setting [5]), the “solubility of itraconazole in dimethicone 350 CST” value is given as 0.01-0.05 % w/w, the “solubility of itraconazole in dimethyl isosorbide” value is recorded as 2.32 % w/w, the “solubility of itraconazole in ethanol” value is given as 0.01-0.05 % w/w and the “solubility of itraconazole in phenoxyethanol” value is listed as 7.87 % w/w. The “solubility of itraconazole in the remaining solvents investigated (not shown)” value in data set [1] (setting [5]) is reported as 0.01-0.20 % w/w. The IC50 in data set [2] is 800 nM.
As to `CC1=C2C[C@H]3[C@@H](CC[C@@H]4C[C@H](NS(C)(=O)=O)CC[C@@]43C)[C@@H]2CC[C@@]2(C1)O[C@@H]1C[C@H](C)CN[C@H]1[C@H]2C` [patidegib], the EC50 in data set [3] is 7 nM. Also, the “dose proportionality of increases in mean Cmax and AUC0-24” value in data set [4] (40 to 80 mg/kg/day, Day 90) is “generally greater than dose proportional”. The Cmax is 21.9 ng/mL in data set [4] (setting [6]); 3.93 ng/mL in data set [4] (setting [7]); 249 ng/mL in data set [4] (setting [8]); 75.8 ng/mL in data set [4] (setting [9]); 4.65 ng/mL in data set [4] (setting [10]); 35 ng/mL in data set [4] (setting [11]). Besides, the Cmax came to 4.03 ng/mL in data set [4] (setting [12]); 410 ng/mL in data set [4] (setting [13]); 141 ng/mL in data set [4] (setting [14]); 8.68 ng/mL in data set [4] (setting [15]); 3.84 ng/mL in data set [4] (setting [16]); 88.7 ng/mL in data set [4] (setting [17]). In addition, the peak concentration (Cmax) in data set [4] (setting [18]) is 21.4 ng/mL. Besides, the AUC(0-t) in data set [4] (setting [6]) amounted to 329 ng·h/mL; in data set [4] (setting [7]) it was 37.1 ng·h/mL; in data set [4] (setting [8]) it was 4110 ng·h/mL; in data set [4] (setting [9]), 1240 ng·h/mL; in data set [4] (setting [10]) it was 56.7 ng·h/mL; in data set [4] (setting [11]) it was 526 ng·h/mL. Moreover, the AUC(0-t) came to 36.3 ng·h/mL in data set [4] (setting [12]); 6820 ng·h/mL in data set [4] (setting [13]); 2310 ng·h/mL in data set [4] (setting [14]); 132 ng·h/mL in data set [4] (setting [15]); 37.7 ng·h/mL in data set [4] (setting [16]); 1390 ng·h/mL in data set [4] (setting [17]). Also, in data set [4] (setting [18]), the AUC(0-t) was 352 ng·h/mL. Moreover, the Tmax lay within 2 to 8 h in data set [4] (both sexes, post the first or second dose on Day 1); 2 to 6 h in data set [4] (both sexes, post the first or second dose on Days 14 and 90).
